Structures can show the parent of a compound that is named as a salt.

The results in this text go back to patent US11230540B2, “Substituted triazole derivatives and uses thereof” (Bayer Pharma Aktiengesellschaft, priority 2017, dated 2022).

For one test, the target named is T1, human V2 receptor (Homo sapiens, UniProt P30518).
T1 construct: expressed in transfected cells; host or cells: CHO K1 (Chinese hamster ovary) expressing firefly luciferase under a CRE-responsive promoter
In words: Cellular in vitro assay for vasopressin receptor activity, V2 receptor cell line (CRE-luciferase). Format: cell-based. As to conditions: CHO cell line transfected with human V2 receptor; [Arg8]-vasopressin at EC50 concentration; read-out: IC50 hV2. On the procedure:
(§1) B-1. Cellular In Vitro Assay for Determining Vasopressin Receptor Activity
(§2) The identification of agonists and antagonists of the V1a and V2 vasopressin receptors from humans, rats and dogs as well as the quantification of the activity of the compounds of the invention is carried out using recombinant cell lines. These cell lines originally derive from a hamster's ovary epithelial cell (Chinese Hamster Ovary, CHO K1, ATCC: American Type Culture Collection, Manassas, Va. 20108, USA). The test cell lines constitutively express the human, rat or dog V1a or V2 receptors. In case of the […] V1a receptors, cells are also stably transfected with a modified form of the calcium-sensitive photoproteins aequorin (human and rat V1a) or obelin (dog V1a), which, after reconstitution with the cofactor coelenterazine, emit light when there are increases in free calcium concentrations [Rizzuto R, Simpson A W, Brini M, Pozzan T, Nature 358, 325-327 (1992); Illarionov B A, Bondar V S, Illarionova V A, Vysotski E S, Gene 153 (2), 273-274 (1995)]. The resulting vasopressin receptor cells react to stimulation of the recombinantly expressed V1a receptors by intracellular release of calcium ions, which can be quantified by the resulting photoprotein luminescence. The Gs-coupled V2 receptors are stably transfected into cell lines expressing the gene for firefly luciferase under control of a CRE-responsible promoter. Activation of V2 receptors induces the activation of the CRE-responsive promoter via cAMP increase, thereby inducing the expression of firefly luciferase. The light emitted by photoproteins of V1a cell lines as well as the light emitted by firefly luciferase of V2 cell lines corresponds to the activation or inhibition of the respective vasopressin receptor. The bioluminescence of the cell lines is detected using a suitable luminometer [Milligan G, Marshall F, Rees S, Trends in Pharmacological Sciences 17, 235-237 (1996)].
Vasopressin V2 Receptor Cell Lines:
On the day before the assay, the cells are plated out in culture medium (DMEM/F12, 2% FCS, 2 mM glutamine, 10 mM HEPES) in 384-well microtiter plates and kept in a cell incubator (96% humidity, 5% v/v CO2, 37° C.). On the day of the assay, test compounds in various concentrations and the agonist [Arg^8]-vasopressin at EC50 concentration are added together to the wells, and plates are incubated for 3 hours in a cell incubator. Upon addition of the cell lysis reagent Triton™ and the substrate luciferin, luminescence of firefly luciferase is measured in a luminometer.
(§3) Table 1A below lists individual IC50 values for the compounds of the invention (including racemic mixtures as well as separated enantiomers) that were obtained from cell lines transfected with the human V1a or V2 receptor: […]

The next test deals with T2, human V1a receptor (Homo sapiens, UniProt P37288).
T2 construct: expressed in transfected cells; host or cells: CHO K1 (Chinese hamster ovary), also stably transfected with a modified aequorin
T2 sequence (P37288 whole entry): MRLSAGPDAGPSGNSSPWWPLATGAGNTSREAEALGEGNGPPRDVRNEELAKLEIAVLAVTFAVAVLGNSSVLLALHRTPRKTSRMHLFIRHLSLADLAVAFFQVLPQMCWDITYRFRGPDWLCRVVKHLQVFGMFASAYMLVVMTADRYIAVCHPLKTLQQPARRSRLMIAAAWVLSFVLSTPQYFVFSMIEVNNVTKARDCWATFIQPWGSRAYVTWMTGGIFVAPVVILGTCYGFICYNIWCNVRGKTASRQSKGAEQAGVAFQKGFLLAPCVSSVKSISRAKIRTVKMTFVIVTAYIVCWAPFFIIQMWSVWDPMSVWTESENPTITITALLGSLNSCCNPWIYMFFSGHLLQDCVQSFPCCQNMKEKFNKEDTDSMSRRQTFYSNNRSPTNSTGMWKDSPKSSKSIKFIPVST
Kind of test: Cellular in vitro assay for vasopressin receptor activity, V1a receptor cell line (aequorin luminescence). It is filed as cell-based. As to conditions: for IC50: CHO cell line transfected with human V1a receptor, [Arg8]-vasopressin at EC50 concentration, read-out: IC50 hV1a; for ratio IC50 hV2/hV1a: selectivity ratio of the IC50 values hV2/hV1a. The procedure:
as §1, §2
Vasopressin V1a Receptor Cell Lines:
On the day before the assay, the cells are plated out in culture medium (DMEM/F12, 2% FCS, 2 mM glutamine, 10 mM HEPES, 5 μg/ml coelenterazine) in 384-well microtiter plates and kept in a cell incubator (96% humidity, 5% v/v CO2, 37° C.). On the day of the assay, test compounds in various concentrations are placed for 10 minutes in the wells of the microtiter plate before the agonist [Arg^8]-vasopressin at EC50 concentration is added. The resulting light signal is measured immediately in a luminometer.
as §3

T1 sequence (P30518 whole entry): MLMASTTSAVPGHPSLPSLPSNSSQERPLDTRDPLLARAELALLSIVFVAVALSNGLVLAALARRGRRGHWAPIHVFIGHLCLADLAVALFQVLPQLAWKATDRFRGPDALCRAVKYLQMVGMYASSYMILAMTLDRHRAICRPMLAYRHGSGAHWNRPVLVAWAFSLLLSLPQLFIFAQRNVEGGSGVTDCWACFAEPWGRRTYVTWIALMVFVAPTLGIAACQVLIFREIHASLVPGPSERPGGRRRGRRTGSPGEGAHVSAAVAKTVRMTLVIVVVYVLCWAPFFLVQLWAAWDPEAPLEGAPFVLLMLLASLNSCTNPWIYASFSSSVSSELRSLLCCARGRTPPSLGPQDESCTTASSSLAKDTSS

The IC50 is the concentration that inhibits the measured activity by half. As to `CC(C)(C)NC(=O)c1nc(Cn2nc(-c3ccc(Cl)cc3)n(C[C@H](O)C(F)(F)F)c2=O)nn1-c1ccccc1Cl` [Example 28, N-tert-Butyl-1-(2-chlorophenyl)-3-({3-(4-chlorophenyl)-5-oxo-4-[(2S)-3,3,3-trifluoro-2-hydroxypropyl]-4,5-dihydro-1H-1,2,4-triazol-1-yl}methyl)-1H-1,2,4-triazole-5-carboxamide], the IC50 on human V2 receptor amounted to 26 nM. Besides, on human V1a receptor, the IC50 is 2.95 nM and the “ratio IC50 hV2/hV1a” value is 8.8.

On to `CC(C)(C)NC(=O)c1nc(Cn2nc(-c3ccc(Cl)cc3)n(C[C@H](O)C(F)(F)F)c2=O)nn1-c1ncccc1OC(F)(F)F` [Example 29, N-tert-Butyl-3-({3-(4-chlorophenyl)-5-oxo-4-[(2S)-3,3,3-trifluoro-2-hydroxypropyl]-4,5-dihydro-1H-1,2,4-triazol-1-yl}methyl)-1-[3-(trifluoromethoxy)pyridin-2-yl]-1H-1,2,4-triazole-5-carboxamide], for which the IC50 at human V2 receptor is 635 nM. Moreover, on human V1a receptor, the IC50 amounted to 19.5 nM and the “ratio IC50 hV2/hV1a” value is given as 32.6.

Regarding `O=C(c1nc(Cn2nc(-c3ccc(Cl)cc3)n(C[C@H](O)C(F)(F)F)c2=O)nn1-c1ccccc1Cl)N1CCOCC1` [Example 30, 5-(4-Chlorophenyl)-2-{[1-(2-chlorophenyl)-5-(morpholin-4-ylcarbonyl)-1H-1,2,4-triazol-3-yl]methyl}-4-[(2S)-3,3,3-trifluoro-2-hydroxypropyl]-2,4-dihydro-3H-1,2,4-triazol-3-one], the results for the IC50 at human V2 receptor and at human V1a receptor were 29.3 nM and 1.01 nM, respectively. Besides, the “ratio IC50 hV2/hV1a” value on human V1a receptor was 29.0.

`O=C1CN(C(=O)c2nc(Cn3nc(-c4ccc(Cl)cc4)n(C[C@H](O)C(F)(F)F)c3=O)nn2-c2ccccc2Cl)CCN1` [Example 31, 4-{[1-(2-Chlorophenyl)-3-({3-(4-chlorophenyl)-5-oxo-4-[(2S)-3,3,3-trifluoro-2-hydroxypropyl]-4,5-dihydro-1H-1,2,4-triazol-1-yl}methyl)-1H-1,2,4-triazol-5-yl]carbonyl}piperazin-2-one]: the IC50 at human V2 receptor was found to be 34 nM. Further, on human V1a receptor, the IC50 amounted to 5.7 nM and the “ratio IC50 hV2/hV1a” value was determined as 6.0.

As to `O=C(NCC1(O)CC1)c1nc(Cn2nc(-c3ccc(Cl)cc3)n(C[C@H](O)C(F)(F)F)c2=O)nn1-c1ccccc1Cl` [Example 32, 1-(2-Chlorophenyl)-3-({3-(4-chlorophenyl)-5-oxo-4-[(2S)-3,3,3-trifluoro-2-hydroxypropyl]-4,5-dihydro-1H-1,2,4-triazol-1-yl}methyl)-N-[(1-hydroxycyclopropyl)methyl]-1H-1,2,4-triazole-5-carboxamide], at human V2 receptor, the IC50 was 7.43 nM. For the same compound, on human V1a receptor, the IC50 came out at 1.2 nM and the “ratio IC50 hV2/hV1a” value was 6.2.

`O=C(NC1CC1)c1nc(Cn2nc(-c3ccc(Cl)cc3)n(C[C@H](O)C(F)(F)F)c2=O)nn1-c1ccccc1Cl` [Example 33, 1-(2-Chlorophenyl)-3-({3-(4-chlorophenyl)-5-oxo-4-[(2S)-3,3,3-trifluoro-2-hydroxypropyl]-4,5-dihydro-1H-1,2,4-triazol-1-yl}methyl)-N-cyclopropyl-1H-1,2,4-triazole-5-carboxamide]: the IC50 was 9.77 nM at human V2 receptor and 1.32 nM on human V1a receptor. The “ratio IC50 hV2/hV1a” value on human V1a receptor is listed as 7.4.

With `CNC(=O)c1nc(Cn2nc(-c3ccc(Cl)cc3)n(C[C@H](O)C(F)(F)F)c2=O)nn1-c1cccc(Cl)c1` [Example 34, 1-(3-Chlorophenyl)-3-({3-(4-chlorophenyl)-5-oxo-4-[(2S)-3,3,3-trifluoro-2-hydroxypropyl]-4,5-dihydro-1H-1,2,4-triazol-1-yl}methyl)-N-methyl-1H-1,2,4-triazole-5-carboxamide], at human V2 receptor, the IC50 worked out at 6.95 nM. For the same compound, at human V1a receptor, the IC50 is 34.6 nM and the “ratio IC50 hV2/hV1a” value stood at 0.2.

Consider `CN(C)C(=O)c1nc(Cn2nc(-c3ccc(Cl)cc3)n(C[C@H](O)C(F)(F)F)c2=O)nn1-c1cccc(Cl)c1` [Example 35, 1-(3-Chlorophenyl)-3-({3-(4-chlorophenyl)-5-oxo-4-[(2S)-3,3,3-trifluoro-2-hydroxypropyl]-4,5-dihydro-1H-1,2,4-triazol-1-yl}methyl)-N,N-dimethyl-1H-1,2,4-triazole-5-carboxamide], for which the IC50 on human V2 receptor was 3.64 nM. Further, on human V1a receptor, the IC50 is 4.92 nM and the “ratio IC50 hV2/hV1a” value was 0.7.

In the case of `O=C(c1nc(Cn2nc(-c3ccc(Cl)cc3)n(C[C@H](O)C(F)(F)F)c2=O)nn1-c1cccc(Cl)c1)N1CCOCC1` [Example 36, 5-(4-Chlorophenyl)-2-{[1-(3-chlorophenyl)-5-(morpholin-4-ylcarbonyl)-1H-1,2,4-triazol-3-yl]methyl}-4-[(2S)-3,3,3-trifluoro-2-hydroxypropyl]-2,4-dihydro-3H-1,2,4-triazol-3-one], the IC50 at human V2 receptor was 12.8 nM. In addition, on human V1a receptor, the IC50 stood at 18.3 nM and the “ratio IC50 hV2/hV1a” value came out at 0.7.

As for `COCCNC(=O)c1nc(Cn2nc(-c3ccc(Cl)cc3)n(C[C@H](O)C(F)(F)F)c2=O)nn1-c1cccc(F)c1` [Example 37, 3-({3-(4-Chlorophenyl)-5-oxo-4-[(2S)-3,3,3-trifluoro-2-hydroxypropyl]-4,5-dihydro-1H-1,2,4-triazol-1-yl}methyl)-1-(3-fluorophenyl)-N-(2-methoxyethyl)-1H-1,2,4-triazole-5-carboxamide], at human V2 receptor, the IC50 was determined as 23.4 nM. Moreover, on human V1a receptor, the IC50 stood at 38.6 nM and the “ratio IC50 hV2/hV1a” value is on record as 0.6.

In the case of `O=C(NCC(F)(F)F)c1nc(Cn2nc(-c3ccc(Cl)cc3)n(C[C@H](O)C(F)(F)F)c2=O)nn1-c1cccc(F)c1` [Example 38, 3-({3-(4-Chlorophenyl)-5-oxo-4-[(2S)-3,3,3-trifluoro-2-hydroxypropyl]-4,5-dihydro-1H-1,2,4-triazol-1-yl}methyl)-1-(3-fluorophenyl)-N-(2,2,2-trifluoroethyl)-1H-1,2,4-triazole-5-carboxamide], the IC50 at human V2 receptor amounted to 11.4 nM; at human V1a receptor, 9.66 nM. Besides, the “ratio IC50 hV2/hV1a” value at human V1a receptor was 1.2.

For the compound `O=C(NC1CC1)c1nc(Cn2nc(-c3ccc(Cl)cc3)n(C[C@H](O)C(F)(F)F)c2=O)nn1-c1cccc(F)c1` [Example 39, 3-({3-(4-Chlorophenyl)-5-oxo-4-[(2S)-3,3,3-trifluoro-2-hydroxypropyl]-4,5-dihydro-1H-1,2,4-triazol-1-yl}methyl)-N-cyclopropyl-1-(3-fluorophenyl)-1H-1,2,4-triazole-5-carboxamide], the IC50 at human V2 receptor is 28.1 nM; at human V1a receptor, 47 nM. The “ratio IC50 hV2/hV1a” value at human V1a receptor came to 0.6.

`CC(C)(C)OC(=O)N1CCN(C(=O)c2nc(Cn3nc(-c4ccc(Cl)cc4)n(C[C@H](O)C(F)(F)F)c3=O)nn2-c2cccc(F)c2)CC1` [Example 40, tert-Butyl 4-{[3-({3-(4-chlorophenyl)-5-oxo-4-[(2S)-3,3,3-trifluoro-2-hydroxypropyl]-4,5-dihydro-1H-1,2,4-triazol-1-yl}methyl)-1-(3-fluorophenyl)-1H-1,2,4-triazol-5-yl]carbonyl}piperazine-1-carboxylate]: the IC50 was 98.7 nM at human V2 receptor and 131 nM on human V1a receptor. Further, the “ratio IC50 hV2/hV1a” value on human V1a receptor amounted to 0.8.

Regarding `O=C(c1nc(Cn2nc(-c3ccc(Cl)cc3)n(C[C@H](O)C(F)(F)F)c2=O)nn1-c1cccc(F)c1)N1CCNCC1` [Example 41, 5-(4-Chlorophenyl)-2-{[1-(3-fluorophenyl)-5-(piperazin-1-ylcarbonyl)-1H-1,2,4-triazol-3-yl]methyl}-4-[(2S)-3,3,3-trifluoro-2-hydroxypropyl]-2,4-dihydro-3H-1,2,4-triazol-3-one trifluoroacetate], the figures for the IC50 at human V2 receptor and at human V1a receptor were 141 nM and 19.3 nM, respectively. Moreover, on human V1a receptor, the “ratio IC50 hV2/hV1a” value is recorded as 7.4.
